Structures can show the parent of a compound that is named as a salt. Where two headings read alike, the source gives them in different places.
Assays:
[1] = target: T1, Human fibrinogen receptor (αIIbβ3) (Homo sapiens, UniProt P05106+P08514); assay: Purified IIb/IIIa receptor assay (solid phase receptor assay, competition with biotinylated vitronectin); type: binding; settings: read-out: IIb/IIIa IC50
T1 construct: Human fibrinogen receptor (αIIbβ3) was purified from outdated platelets; from tissue; host or cells: outdated human platelets
In short: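 Purified platelet αIIbβ3 coated overnight at 4 °C in TBS with 1.0 mM Ca/Mg/Mn, pH 7.4, then BSA-blocked. Compounds (top 1.0×10^−4 M) competed with 1 nM biotinylated vitronectin for 2 h at room temperature. Bound label detected by HRP anti-biotin, A450; values normalized to no-competitor controls, four-parameter fit.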

[2] = tested on: platelet rich plasma; assay: Human platelet rich plasma assay (ADP induced platelet aggregation); type: cell-based; settings: Homo sapiens, Platelet, ADP induced platelet aggregation in human platelet rich plasma; read-out: Human PRP
In short: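 Citrated platelet-rich plasma from aspirin-free healthy human donors was stirred at 37 °C and preincubated with compound for 1 min. Aggregation was then triggered with ADP (added as a 200 uM solution) and recorded photometrically for 3 min. Dose–response curves were built from % inhibition of the maximal saline-control response.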

[3] = tested on: M21 human melanoma cells; assay: M21 melanoma cell adhesion assay (αvβ3-dependent adhesion to human fibrinogen-coated plates); type: cell-based; settings: read-out: M21 Melanoma Cells IC50
Method: M21 MELANOMA CELL ADHESION ASSASY
This assay involves an αvβ3-dependent adhesion of M21 human melanoma cells to human fibrinogen-coated plastic tissue culture dishes.
Fibrinogen was purified from human plasma. Fibronectin and plasminogen were eliminated from the preparation by passing the sample over gelatin-sepharose 4B and lysine-sepharose 4B resins, respectively. The fibrinogen is diluted to 10 μg/mL in coating buffer ([…] Tris-HCl, 150 mM NaCl, pH 7.4). 100 μL of diluted fibrinogen is added to each well of a 96-well Immulon 2 microtiter plate (Dynatech; Chantilly, Va.) and allowed to coat overnight at 4° C. Plates are blocked with 1% BSA (Miles/Pentex; Kankakee, Ill.) in adhesion buffer (Hank's balanced salt solution without Ca^++ or Mg^++ [HBSS−−], 50 mM Hepes, 1 mg/mL BSA, pH 7.4) for 1 hour at 37° C.
M21 human melanoma cells were provided by Dr. J. Smith, La Jolla Cancer Research Institute. M21 cells are harvested from tissue culture flasks by washing with HBSS−− and adding cell dissociation solution (Sigma) and incubating for 5 minutes at 37° C. Harvested cells are washed 3 times with adhesion assay buffer containing 200 μM Mn^++. Cells are counted and suspended to a density of 2×10^6/mL in adhesion assay buffer containing 200 μM Mn^++. M21 cells are pre-incubated with antagonists of αvβ3 for 30 minutes at room temperature. Following the pre-incubation, the solutions containing a mixture of cells and antagonists are added to each well of the microtiter plate and allowed to bind for 30 minutes at 37° C.
Following adhesion, plates are gently washed 3 times with 200 μL of wash buffer (50 mM Tris-HCl, 150 mM NaCl, pH 7.4) using large bore pipet tips. Plates are briefly blotted dry and 100 μL of cell lysis buffer (50 mM sodium acetate, pH 5.0, 0.5% Triton X-100, 0.3 mg/mL p-nitrophenyl phosphate [Sigma] is added to each well. Plates are incubated for 60 minutes at 37° C. and 50 μL of 1N NaOH is added to stop the reaction. The absorbance of the wells at […] is read using an automatic plate reader.

T1 sequence (P08514 32-887 limits assumed): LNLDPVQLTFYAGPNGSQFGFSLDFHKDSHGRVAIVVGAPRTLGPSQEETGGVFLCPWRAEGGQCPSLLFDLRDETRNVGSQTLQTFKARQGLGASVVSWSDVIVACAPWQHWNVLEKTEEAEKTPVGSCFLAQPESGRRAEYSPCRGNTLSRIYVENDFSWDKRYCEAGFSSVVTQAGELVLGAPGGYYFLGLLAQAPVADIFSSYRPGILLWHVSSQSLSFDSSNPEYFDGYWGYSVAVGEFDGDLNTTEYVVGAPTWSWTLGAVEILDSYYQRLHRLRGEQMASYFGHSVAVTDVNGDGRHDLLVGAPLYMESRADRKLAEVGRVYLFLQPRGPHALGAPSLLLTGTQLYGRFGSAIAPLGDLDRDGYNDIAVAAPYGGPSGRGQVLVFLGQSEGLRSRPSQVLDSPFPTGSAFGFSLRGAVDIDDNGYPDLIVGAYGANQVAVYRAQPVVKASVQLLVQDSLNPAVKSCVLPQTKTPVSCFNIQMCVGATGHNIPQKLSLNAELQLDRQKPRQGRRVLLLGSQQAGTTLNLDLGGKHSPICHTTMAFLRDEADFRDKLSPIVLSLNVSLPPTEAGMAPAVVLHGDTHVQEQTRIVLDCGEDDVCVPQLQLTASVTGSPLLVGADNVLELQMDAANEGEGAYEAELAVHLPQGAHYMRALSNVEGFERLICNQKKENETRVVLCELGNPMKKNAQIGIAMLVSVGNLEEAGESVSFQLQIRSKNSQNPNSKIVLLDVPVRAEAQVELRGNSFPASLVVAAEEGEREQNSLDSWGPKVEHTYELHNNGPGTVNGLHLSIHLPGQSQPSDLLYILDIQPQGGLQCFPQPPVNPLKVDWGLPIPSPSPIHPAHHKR
T1 sequence (P08514 891-1039 limits assumed): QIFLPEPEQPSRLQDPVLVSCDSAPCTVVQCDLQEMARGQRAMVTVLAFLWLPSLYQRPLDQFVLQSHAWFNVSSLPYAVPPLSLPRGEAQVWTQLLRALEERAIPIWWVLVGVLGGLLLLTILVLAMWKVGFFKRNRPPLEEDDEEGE
T1 sequence (P05106 27-788): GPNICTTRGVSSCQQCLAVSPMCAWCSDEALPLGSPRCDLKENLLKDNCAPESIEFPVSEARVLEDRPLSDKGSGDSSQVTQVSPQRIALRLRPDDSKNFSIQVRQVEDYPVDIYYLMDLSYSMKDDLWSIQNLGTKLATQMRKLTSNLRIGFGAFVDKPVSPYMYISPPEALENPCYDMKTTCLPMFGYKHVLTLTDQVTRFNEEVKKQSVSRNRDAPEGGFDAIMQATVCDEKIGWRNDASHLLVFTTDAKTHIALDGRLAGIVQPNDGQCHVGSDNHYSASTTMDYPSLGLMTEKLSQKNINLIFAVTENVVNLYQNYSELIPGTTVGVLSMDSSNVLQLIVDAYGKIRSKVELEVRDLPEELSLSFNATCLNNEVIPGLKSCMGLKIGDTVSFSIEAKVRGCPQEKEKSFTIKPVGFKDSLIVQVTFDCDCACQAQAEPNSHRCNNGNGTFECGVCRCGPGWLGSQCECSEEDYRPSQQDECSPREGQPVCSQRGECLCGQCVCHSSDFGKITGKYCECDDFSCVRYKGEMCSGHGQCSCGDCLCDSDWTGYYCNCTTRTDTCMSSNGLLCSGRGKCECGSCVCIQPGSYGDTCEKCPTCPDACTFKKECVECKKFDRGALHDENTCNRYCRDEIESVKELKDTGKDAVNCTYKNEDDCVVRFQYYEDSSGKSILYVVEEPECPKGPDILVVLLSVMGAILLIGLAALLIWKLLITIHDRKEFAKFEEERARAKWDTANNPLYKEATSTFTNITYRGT

SMILES	IC50 [1]	IC50 [2]	IC50 ([3]; Homo sapiens, M21)	IC50 ([3]; hydrochloride salt)
N=C(N)Nc1cccc(C(=O)NCC(=O)NC(CC(=O)O)c2ccccc2)c1 (racemic) [Example 4, (±)β-[[2-[[[3-[(aminoiminomethyl)amino]phenyl]carbonyl]amino]acetyl]amino]benzene-propanoic acid, trifluoroacetate salt]	0.473 µM	> 200 µM	0.0033 µM	
N=C(N)Nc1cccc(C(=O)NCC(=O)NC(CCS(=O)(=O)c2ccccc2C(=O)O)CC(=O)O)c1 (racemic) [60(C), (±)2-[3-[[2-[[[3-[(aminoiminomethyl)amino]phenyl]carbonyl]amino]acetyl]amino]-4-carboxybutyl]sulfonyl]benzoic acid, trifluoroacetate]	0.0164 µM	> 200 µM	0.00074 µM	

More lines, now with the values ahead:

IC50 [1]	IC50 [2]	IC50 ([3]; Homo sapiens, M21)	IC50 ([3]; hydrochloride salt)	SMILES
0.137 µM	> 200 µM	0.00364 µM		O=C(O)CC(NC(=O)CNC(=O)c1cccc(NC2=NCCC2)c1)c1cccnc1 (stereo not drawn) [Example 17, β-[[2-[[[3-[(3,4-dihydro-2H-pyrrol-5-yl)amino]phenyl]carbonyl]amino]acetyl]amino]pyridine-3-propanoic acid, bis(trifluoroacetate)salt]
0.0923 µM	> 200 µM	0.00408 µM		Cc1ccc(S(=O)(=O)CCC(CC(=O)O)NC(=O)CNC(=O)c2cccc(NC(=N)N)c2)cc1 (racemic) [Example 67, (±)3-[[2-[[[3-[(aminoiminomethyl)amino]phenyl]carbonyl]amino]acetyl]amino]-5-[(4-methylphenyl)sulfonyl]pentanoic acid, trifluoroacetate salt]
1.64 µM	> 200 µM		0.188 µM	C#C[C@@H](CC(=O)O)NC(=O)CNC(=O)c1cccc(NC(=N)N)c1 [Example 43, 3R-[[2-[[[(3-[(aminoiminomethyl)amino]phenyl]carbonyl]amino]acetyl]amino]-4-pentynoic acid, hydrochloride salt]
0.139 µM	> 200 µM	0.00542 µM		O=C(O)CC(NC(=O)CNC(=O)c1cccc(NC2=NCCCCC2)c1)c1ccc2c(c1)OCO2 (racemic) [Example 14, (±)β-[[2-[[[3-[(3,4,5,6-tetrahydro-2H-azepin-7-yl)amino]phenyl]carbonyl]amino]acetyl]amino]-1,3-benzodioxole-5-propanoic acid, TFA salt]

From patent US6831199B1, “Pyrimidine compounds and derivatives thereof” (G. D. Searle & Co., priority 1995, dated 2004)
